Experiments:
[1] = system: Puccinia recondita f. Sp. tritici; experiment: In vivo preventive test on Puccinia recondita f. Sp. tritici (wheat brown rust); conditions: topical, 240 h, 1000 ppm of active ingredient, evaluated 10 days after inoculation, read-out: efficacy
[2] = system: Erysiphe graminis f. sp. hordei; experiment: In vivo preventive test on Erysiphe gramini (powdery mildew on barley); conditions: Blumeria graminis, 168 h, 1000 ppm of active ingredient, evaluated 7 days after inoculation, read-out: efficacy
[3] = system: Podosphaera leucotricha; experiment: In vivo protective test on Podosphaera leucotricha (apples); conditions: topical, 240 h, 100 ppm of active ingredient, evaluated 10 days after inoculation, read-out: efficacy
[4] = system: Sphaerotheca fuliginea; experiment: In vivo protective test on Sphaerotheca fuliginea (cucumbers); conditions: Podosphaera fuliginea, 168 h, 100 ppm of active ingredient, evaluated 7 days after inoculation, read-out: efficacy
[5] = physchem; conditions: reversed-phase HPLC column (C 18)
[6] = system: Alternaria solani; experiment: In vivo protective test on Alternaria solani (leaf spot of tomato); conditions: 168 h, 500 ppm of active ingredient, evaluated 7 days after inoculation, read-out: efficacy

Compound	pest or weed control at 1000 ppm [1] [%]	chromatographic logP [5]	other results
CCN(C)/C=N/c1cc(C)c(Oc2nc(Cl)c(Br)s2)cc1C [Compound 1.6]	≥ 70	2	pest or weed control at 1000 ppm [2]: ≥ 70%; pest or weed control at 100 ppm [3]: ≥ 70%; pest or weed control at 100 ppm [4]: ≥ 70%
Cc1cc(Oc2nc(C(F)(F)F)c(Cl)s2)c(C)cc1/N=C/N(C)C(C)C [Compound 1.10]	≥ 70	2.29	pest or weed control at 1000 ppm [2]: ≥ 70%; pest or weed control at 100 ppm [3]: ≥ 70%; pest or weed control at 100 ppm [4]: ≥ 70%
Cc1cc(Oc2nc(C)c(Cl)s2)c(C)cc1/N=C/N(C)C(C)C [Compound 1.13]	≥ 70	2.14	pest or weed control at 1000 ppm [2]: ≥ 70%; pest or weed control at 500 ppm [6]: ≥ 70%
Cc1cc(Oc2nc(Cl)cs2)c(C)cc1/N=C/N(C)C(C)C [Compound 1.14]	–	1.7	pest or weed control at 500 ppm [6]: ≥ 70%
CCN(C)/C=N/c1cc(C)c(Oc2nc(Cl)c(C)s2)cc1C [Compound 1.17]	≥ 70	1.8	pest or weed control at 1000 ppm [2]: ≥ 70%; pest or weed control at 500 ppm [6]: ≥ 70%; pest or weed control at 100 ppm [3]: ≥ 70%
CCN(C)/C=N/c1cc(C)c(Oc2nc(C(C)C)c(Cl)s2)cc1C [Compound 1.20]	≥ 70	2.52	pest or weed control at 1000 ppm [2]: ≥ 70%; pest or weed control at 500 ppm [6]: ≥ 70%
CCN(C)/C=N/c1cc(C)c(Oc2nc(C)c(C(C)=O)s2)cc1C [Compound 1.27]	–	1.5	pest or weed control at 500 ppm [6]: ≥ 70%
Cc1cc(Oc2nc(Cl)c(Cl)s2)ccc1/N=C/N(C)C(C)C [Compound 1.28]	≥ 70	2.09	pest or weed control at 1000 ppm [2]: ≥ 70%
Cc1cc(Oc2nc(Cl)c(C)s2)c(C)cc1/N=C/N(C)C [Compound 1.31]	–	1.69	–
CCN(C)/C=N/c1ccc(Oc2nc(C)c(C)s2)cc1C [Compound 1.33]	–	1.65	–
Cc1cc(Oc2nc(C)c(C)s2)ccc1/N=C/N(C)C(C)C [Compound 1.34]	–	1.66	–
CCCc1sc(Oc2cc(C)c(/N=C/N(C)C(C)C)cc2C)nc1C [Compound 1.35]	–	2.29	–
CCCc1sc(Oc2cc(C)c(/N=C/N(C)CC)cc2C)nc1C [Compound 1.36]	–	2.22	–
Cc1cc(Oc2nc(C)c(C)s2)c(C)cc1/N=C/N(C)C(C)C [Compound 1.37]	–	1.98	–
CCN(C)/C=N/c1cc(C)c(Oc2nc(C)c(C)s2)cc1C [Compound 1.38]	–	1.87	–
CCN(C)/C=N/c1ccc(Oc2nc(Cl)c(Cl)s2)cc1C [Compound 1.39]	–	1.99	–
CCN(C)/C=N/c1cc(C)c(Oc2nc(C=O)c(Cl)s2)cc1C [Compound 1.42, N′-{4-[(5-chloro-4-formyl-1,3-thiazol-2-yl)oxy]-2,5-dimethylphenyl}-N-ethyl-N-methylimidoformamide]	–	1.46	chromatographic logP ([5]; pH 2.3): 1.51
CCN(C)C=Nc1cc(C)c(Oc2nc(C=NOC(C)(C)C)c(Cl)s2)cc1C [Compound 1.44, N′-[4-({4-[(tert-butoxyimino)methyl]-5-chloro-1,3-thiazol-2-yl}oxy)-2,5-dimethylphenyl]-N-ethyl-N-methylimidoformamide]	–	2.65	chromatographic logP ([5]; pH 2.3): 2.65
CCN(C)/C=N/c1cc(C)c(Oc2nc(-c3ccccc3)cs2)cc1C [Compound 1.60]	–	2.18	–
Cc1cc(Oc2nc(-c3ccccc3)cs2)c(C)cc1/N=C/N(C)C(C)C [Compound 1.61]	–	2.25	–
CCN(C)/C=N/c1cc(C)c(Oc2nc(Cl)c(C=O)s2)cc1C [Compound 1.62]	–	1.68	–
Cc1cc(Oc2nc(C(C)(C)C)c(Cl)s2)c(C)cc1/N=C/N(C)C(C)C [Compound 1.64]	–	2.79	pest or weed control at 500 ppm [6]: ≥ 70%

Compound	pest or weed control at 1000 ppm [1] [%]	chromatographic logP [5]	other results
CCN(C)/C=N/c1cc(C)c(Oc2nc(C(C)(C)C)c(Br)s2)cc1C [Compound 1.71]	≥ 70	2.78	pest or weed control at 500 ppm [6]: ≥ 70%; pest or weed control at 100 ppm [3]: ≥ 70%
CCN(C)/C=N/c1cc(C)c(Oc2nc(C#N)c(Cl)s2)cc1C [Compound 1.72]	≥ 70	1.74	pest or weed control at 100 ppm [3]: ≥ 70%
CCN(C)/C=N/c1cc(C)c(Oc2nc(Cl)c(C(C)(C)C)s2)cc1C [Compound 1.73]	≥ 70	2.87	–
CCN(C)/C=N/c1cc(C)c(Oc2ncc(C(C)(C)C)s2)cc1C [Compound 1.74]	≥ 70	2.18	pest or weed control at 500 ppm [6]: ≥ 70%; pest or weed control at 100 ppm [3]: ≥ 70%
CCN(C)/C=N/c1cc(C)c(Oc2nc(C(C)(C)C)cs2)cc1C [Compound 1.75]	≥ 70	2.26	pest or weed control at 100 ppm [3]: ≥ 70%
Cc1cc(Oc2nc(C(C)C)ns2)ccc1/N=C/N(C)C(C)C [Compound 2.1]	–	1.77	–
CCN(C)/C=N/c1ccc(Oc2nc(C(C)C)ns2)cc1C [Compound 2.2]	≥ 70	1.57	pest or weed control at 1000 ppm [2]: ≥ 70%
Cc1cc(Oc2nc(C(C)C)ns2)c(C)cc1/N=C/N(C)C(C)C [Compound 2.4]	≥ 70	1.89	pest or weed control at 1000 ppm [2]: ≥ 70%
CCN(C)/C=N/c1cc(C)c(Oc2nc(Cl)ns2)cc1C [Compound 2.5]	–	1.56	–
Cc1cc(Oc2nc(Cl)ns2)c(C)cc1/N=C/N(C)C(C)C [Compound 2.6]	–	1.67	–
CCN(C)/C=N/c1ccc(Oc2nc(C(C)(C)C)ns2)cc1C [Compound 2.7]	≥ 70	2.04	pest or weed control at 500 ppm [6]: ≥ 70%; pest or weed control at 100 ppm [3]: ≥ 70%
Cc1cc(Oc2nnc(C(F)(F)F)s2)c(C)cc1/N=C/N(C)C(C)C [Compound 3.1]	≥ 70	1.84	pest or weed control at 1000 ppm [2]: ≥ 70%
CCN(C)/C=N/c1cc(C)c(Oc2nnc(C(F)(F)F)s2)cc1C [Compound 3.2]	≥ 70	1.78	pest or weed control at 1000 ppm [2]: ≥ 70%; pest or weed control at 500 ppm [6]: ≥ 70%
CCN(C)/C=N/c1cc(C)c(Oc2nnc(-c3ccccc3)s2)cc1C [Compound 3.3]	–	1.93	–
Cc1cc(Oc2nnc(-c3ccccc3)s2)c(C)cc1/N=C/N(C)C(C)C [Compound 3.6]	–	2	–
CSc1nnc(Oc2cc(C)c(/N=C/N(C)C(C)C)cc2C)s1 [Compound 3.18]	–	1.82	–
Cc1cc(Oc2nnc(C(C)C)s2)c(C)cc1/N=C/N(C)C(C)C [Compound 3.19]	–	1.69	–
CCN(C)/C=N/c1cc(C)c(Oc2nnc(SC)s2)cc1C [Compound 3.21]	–	1.69	pest or weed control at 500 ppm [6]: ≥ 70%
CCN(C)/C=N/c1cc(C)c(Oc2nnc(C(C)C)s2)cc1C [Compound 3.22]	–	1.61	–
Cc1cc(Oc2nc(Cl)c(Cl)s2)c(C)cc1N [II-1, 4-[(4,5-dichloro-1,3-thiazol-2-yl)oxy]-2,5-dimethylaniline]	–	–	chromatographic logP ([5]; pH 2.3): 3.4
CCN(C)/C=N/c1cc(C)c(O)cc1C [IX-a, N-ethyl-N′-(4-hydroxy-2,5-dimethylphenyl)-N-methylimidoformamide]	–	–	chromatographic logP ([5]; pH 2.3): 0.41

Reference: US8933107B2, “Pesticide thiazolyloxy substituted phenylamidine derivatives” (Bayer Cropscience AG, priority 2005, dated 2015)
